Test results taken from patent EP0326640B1, “(1R,5S,6S)-2-substituted thio-6 (R)-1-hydroxyethyl -1-methyl-carbapenem - carboxylic acid derivatives” (LEDERLE (JAPAN) LTD., priority 1987, dated 1989).
In brackets after ≈: the same amount, converted by molar mass. Where two headings read alike, the source gives them in different places.

How the values were obtained:
[1] = system: Morganella morganii IFO3848; assay: Antibacterial test, agar plate dilution method (MIC), standard strains; format: cell-based; conditions: Morganella morganii, IFO3848, 18 h, MH agar, 37°C, read-out: MIC
Protocol: (§1) The antibacterial activities were tested by an agar plate dilution method in accordance with the standard method of The Japanese Chemotherapy Society [Chemotherapy, Vol. 29, 76-79 (1981)].
(§2) A Mueller-Hinton (MH) agar liquid medium of a test microorganism was cultured overnight at 37°C and the resultant culture medium was diluted with a buffered saline gelatin (BSG) solution to contain approximately 10⁶ cells of the test microorganisms per milliliter, and then the diluted solution was inoculated with a microplanter at the rate of approximately 5 microliters on a MH agar medium containing a test compound. This medium was then incubated at 37°C for 18 hours. The minimum inhibitory concentration (MIC) is determined as a minimum concentration in which no test microorganism could grow. It is noted here that the test organisms used were all standard strains.

[2] = system: Pseudomanas aeruginosa NCTC 10940; assay: as above; format: cell-based; conditions: 18 h, MH agar, 37°C, read-out: MIC
Protocol: as §1, §2

[3] = system: Proteus mirabilis IFO3849; assay: as above; format: cell-based; conditions: Proteus mirabilis, IFO3849, 18 h
Protocol: as §1, §2

[4] = system: Salmonella enteritidis G14; assay: as above; format: cell-based; conditions: Salmonella enterica, MH agar, 37°C
Protocol: as §1, §2

[5] = system: Pseudomonas aeruginosa IFO 3445; assay: as above; format: cell-based; conditions: IFO3445, MH agar, 37°C, 18 hours, read-out: MIC
Protocol: as §1, §2

[6] = system: Salmonella schottmuelleri 8006; assay: as above; format: cell-based; conditions: MH agar, 37°C, 18 hours, read-out: MIC
Protocol: as §1, §2

[7] = system: Proteus vulgaris OX-19; assay: as above; format: cell-based; conditions: Proteus vulgaris, OX19, 18 h
Protocol: as §1, §2

[8] = system: Serratia marcescens IAM1184; assay: as above; format: cell-based; conditions: MH agar, 37°C
Protocol: as §1, §2

[9] = system: Proteus vulgaris HX-19; assay: as above; format: cell-based; conditions: Proteus vulgaris, HX19, 18 h
Protocol: as §1, §2

[10] = system: Salmonella paratyphi 1015; assay: as above; format: cell-based; conditions: Salmonella enterica, MH agar, 37°C, 18 hours, read-out: MIC
Protocol: as §1, §2

[11] = system: Providencia rettgeri IFO 3850; assay: as above; format: cell-based; conditions: Providencia rettgeri, IFO3850, 18 h, MH agar, 37°C, read-out: MIC
Protocol: as §1, §2

[12] = system: Salmonella typhi 901; assay: as above; format: cell-based; conditions: Salmonella enterica, TYPHI, 18 h, MH agar, 37°C
Protocol: as §1, §2

[13] = system: P. aeruginosa resistant strains; assay: Sensitivity test against clinical isolates, agar plate dilution method; format: cell-based; conditions: 54 strains of P. aeruginosa having an anti-Pseudomonas resistance
Protocol: The test procedures were based on the agar plate dilution method in accordance with the standard method of The Japanese Chemotherapy Society. The minimum inhibitory concentration (MIC) was determined in substantially the same manner as the test procedures II above using the 54 strains of P. aeruginosa having an anti-Pseudomonas resistance.

[14] = molecular target: T1, Swine Kidney Dehydropeptidase-I (DHP-I) (Sus scrofa, UniProt P22412); assay: Stability of test compounds against DHP-I by HPLC; format: in vitro ADME; conditions: 37°C, Substrate Concentration: 100 μM
T1 construct: made soluble by treatment with butanol and purified by the ammonium sulfate fraction method, thereby producing DHP-I enzyme from a 75% ammonium sulfate fraction; from tissue; host or cells: swine kidney
T1 sequence (P22412 17-384): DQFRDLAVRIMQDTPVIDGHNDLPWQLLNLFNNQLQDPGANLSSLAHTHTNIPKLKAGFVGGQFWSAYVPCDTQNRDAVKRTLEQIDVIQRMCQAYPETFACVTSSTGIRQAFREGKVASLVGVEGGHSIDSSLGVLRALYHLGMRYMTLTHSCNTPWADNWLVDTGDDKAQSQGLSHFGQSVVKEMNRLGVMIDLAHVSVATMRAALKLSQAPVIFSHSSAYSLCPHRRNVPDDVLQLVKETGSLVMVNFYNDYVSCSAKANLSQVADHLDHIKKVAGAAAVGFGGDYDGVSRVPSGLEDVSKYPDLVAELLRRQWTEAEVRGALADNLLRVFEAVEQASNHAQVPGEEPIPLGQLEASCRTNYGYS
Protocol: The swine kidney (8 kg) was homogenized and the enzyme protein was allowed to precipitate. After a connective lipid was removed with acetone, the resultant material was made soluble by treatment with butanol and purified by the ammonium sulfate fraction method, thereby producing DHP-I enzyme from a 75% ammonium sulfate fraction. The DHP-I enzyme was then adjusted to give an enzyme concentration of 25 mg/10 ml (phosphate buffer, pH 7.1), and divided into 1 ml portions. The portions were frozen and stored at -40°C or less until use. Crystalline compound (20) obtained in Example 11 and amorphous compound (14) obtained in Example 5 below were used as a test compound. The test compound was adjusted in situ to give a concentration of 117 µM with a 50 mM sodium phosphate buffer solution (pH =7.1). Glycyl dehydrophenylalanine (Gl-dh-Ph) and imipenem were employed as control compounds, and they were adjusted in situ each to give a concentration of 117 µM with the same sodium phosphate buffer solution. The test compound according to the present invention and the control compounds were treated in substantially the same manner as (1) above. The incubation, however, was conducted at 37°C for 4.5 hours or for 24 hours. The degree of hydrolysis of the compounds each after the test periods was measured by the HPLC method.

Structure (SMILES)	MIC [1]	MIC [2]	MIC ([3]; Proteus mirabilis IFO3849, MH agar, 37°C, 18 hours, read-out: MIC)	MIC ([4]; ENTERITIDIS, 18 h)	MIC [5]	MIC [6]	MIC [7]	MIC ([8]; 18 hours)	MIC [9]	MIC [10]	MIC [11]	MIC [12]	MIC [3]	MIC ([4]; 18 hours, read-out: MIC)	MIC ([8]; Serratia marcescens, IAM1184, 18 h, read-out: MIC)	concentration to inhibit the growth of all the test microorganisms [13]	percent of strains inhibited at 6.25 µg/mL ([13]; concentration of 6.25 µg/ml, read-out: test microorganisms whose growth is inhibited)	DEGREES OF HYDROLYSIS BY DHP-I ([14]; 4.5 hours)	DEGREES OF HYDROLYSIS BY DHP-I ([14]; 24 hours)
C[C@@H](O)[C@H]1C(=O)N2C(C(=O)[O-])=C(SCc3cs[n+](C)n3)[C@H](C)[C@H]12 [Amorphous Compd. (14), (1R,5S,6S)-2-[(2-methyl-1,2,3-thiadiazolium-4-yl)methyl]thio-6-[(R)-1-hydroxyethyl]-1-methyl-carbapenem-3-carboxylate]	0.39 µg/mL (≈ 1.1 µM)	0.39 µg/mL (≈ 1.1 µM)	6.25 µg/mL (≈ 17.6 µM)	1.56 µg/mL (≈ 4.39 µM)	0.39 µg/mL (≈ 1.1 µM)	0.39 µg/mL (≈ 1.1 µM)	1.56 µg/mL (≈ 4.39 µM)	0.2 µg/mL (≈ 0.563 µM)	1.56 µg/mL (≈ 4.39 µM)	1.56 µg/mL (≈ 4.39 µM)	0.05 µg/mL (≈ 0.141 µM)	0.025 µg/mL (≈ 0.0703 µM)	–	–	–	–	–	–	–
C[C@@H](O)[C@H]1C(=O)N2C(C(=O)O)=C(SCCN=CN)C[C@H]12 [Imipenem, imipenem]	0.39 µg/mL (≈ 1.3 µM)	0.78 µg/mL (≈ 2.61 µM)	–	–	0.78 µg/mL (≈ 2.61 µM)	0.78 µg/mL (≈ 2.61 µM)	1.56 µg/mL (≈ 5.21 µM)	–	1.56 µg/mL (≈ 5.21 µM)	1.56 µg/mL (≈ 5.21 µM)	0.78 µg/mL (≈ 2.61 µM)	0.1 µg/mL (≈ 0.334 µM)	6.25 µg/mL (≈ 20.9 µM)	0.78 µg/mL (≈ 2.61 µM)	0.39 µg/mL (≈ 1.3 µM)	12.5 µg/mL	~98%	77.6 µM	* After 24 hours at 37°C, it has been found that most or all imipenem has been decomposed and nothing remained was detected.
